Test results: publication PMC5218480 (PLoS ONE, 2017)

System: MV-4-11 cells
Test: Gene expression microarray analysis (Affymetrix PrimeView) and GSEA
Type: cell-based, human
Parameters: RFU PODN (11730768_x_at) / Fold change /veh PODN (11730768_x_at) / RFU LINC00158 (11744669_a_at) / Fold change /veh LINC00158 (11744669_a_at) / RFU DUSP10 (11751237_a_at) / Fold change /veh DUSP10 (11751237_a_at) / RFU ID3 (11757404_x_at) / Fold change /veh ID3 (11757404_x_at) / RFU PLEKHG5 (11737974_s_at) / Fold change /veh PLEKHG5 (11737974_s_at) / RFU LRRC4B (11730491_at) / Fold change /veh LRRC4B (11730491_at) / RFU GIMAP4 (11747438_a_at) / Fold change /veh GIMAP4 (11747438_a_at) / RFU KRT8 (11758183_x_at) / Fold change /veh KRT8 (11758183_x_at) / RFU CNN1 (11734310_a_at) / Fold change /veh CNN1 (11734310_a_at) / RFU VPS37D (11726825_at) / Fold change /veh VPS37D (11726825_at) / RFU C10orf10 (11716522_x_at) / Fold change /veh C10orf10 (11716522_x_at) / RFU KIR2DL2 /// KIR2DL4 /// KIR2DL5A /// KIR2DL5B /// KIR2DS1 /// KIR2DS2 /// KIR2DS3 /// KIR2DS4 /// KIR3DL3 /// KIR3DL3 /// KIR3DS1 (11738374_at) / Fold change /veh KIR2DL2 /// KIR2DL4 /// KIR2DL5A /// KIR2DL5B /// KIR2DS1 /// KIR2DS2 /// KIR2DS3 /// KIR2DS4 /// KIR3DL3 /// KIR3DL3 /// KIR3DS1 (11738374_at) / RFU C1QL1 (11718748_at) / Fold change /veh C1QL1 (11718748_at) / RFU TMPRSS4 (11747572_a_at) / Fold change /veh TMPRSS4 (11747572_a_at) / RFU HAMP (11756126_x_at) / Fold change /veh HAMP (11756126_x_at) / RFU RNFT2 (11725882_a_at) / Fold change /veh RNFT2 (11725882_a_at) / RFU NR4A2 (11747474_a_at) / Fold change /veh NR4A2 (11747474_a_at) / RFU ABCC12 (11746883_a_at) / Fold change /veh ABCC12 (11746883_a_at) / RFU TMEM136 (11760407_x_at) / Fold change /veh TMEM136 (11760407_x_at) / RFU CLDN22 /// WWC2 (11732394_at) / Fold change /veh CLDN22 /// WWC2 (11732394_at) / RFU HLA-DPB1 (11760878_x_at) / Fold change /veh HLA-DPB1 (11760878_x_at) / RFU SPINT1 (11716480_a_at) / Fold change /veh SPINT1 (11716480_a_at) / RFU GAP43 (11754022_s_at) / Fold change /veh GAP43 (11754022_s_at) / RFU A4GNT (11735810_at) / Fold change /veh A4GNT (11735810_at) / RFU PRB3 (11715151_x_at) / Fold change /veh PRB3 (11715151_x_at) / RFU TUBB4B (11761932_at) / Fold change /veh TUBB4B (11761932_at) / RFU CAPN14 (11732068_a_at) / Fold change /veh CAPN14 (11732068_a_at) / RFU TMCC2 (11721928_a_at) / Fold change /veh TMCC2 (11721928_a_at) / RFU IRGQ (11745062_a_at) / Fold change /veh IRGQ (11745062_a_at) / RFU FAM174B (11720279_a_at) / Fold change /veh FAM174B (11720279_a_at) / RFU TMPRSS4 (11748680_a_at) / Fold change /veh TMPRSS4 (11748680_a_at) / RFU FAM212B (11763350_a_at) / Fold change /veh FAM212B (11763350_a_at) / RFU PLEKHG5 (11743358_a_at) / Fold change /veh PLEKHG5 (11743358_a_at) / RFU ZSCAN30 (11745921_a_at) / Fold change /veh ZSCAN30 (11745921_a_at) / RFU CMKLR1 (11741424_a_at) / Fold change /veh CMKLR1 (11741424_a_at) / RFU LOC101060620 /// MAPK8IP1 (11723275_at) / Fold change /veh LOC101060620 /// MAPK8IP1 (11723275_at) / RFU SPTSSB (11747773_x_at) / Fold change /veh SPTSSB (11747773_x_at) / RFU PRSS12 (11739890_at) / Fold change /veh PRSS12 (11739890_at) / RFU BIN1 (11741810_x_at) / Fold change /veh BIN1 (11741810_x_at) / RFU WNT11 (11732464_a_at) / Fold change /veh WNT11 (11732464_a_at) / RFU C10orf10 (11716521_a_at) / Fold change /veh C10orf10 (11716521_a_at) / RFU C5orf56 (11738089_at) / Fold change /veh C5orf56 (11738089_at) / RFU CYB561 (11721691_x_at) / Fold change /veh CYB561 (11721691_x_at) / RFU ANKRD19P (11752326_a_at) / Fold change /veh ANKRD19P (11752326_a_at) / RFU OR2T12 /// OR2T33 /// OR2T8 (11738714_s_at) / Fold change /veh OR2T12 /// OR2T33 /// OR2T8 (11738714_s_at) / RFU VCAN (11748164_a_at) / Fold change /veh VCAN (11748164_a_at) / RFU JSRP1 (11732532_at) / Fold change /veh JSRP1 (11732532_at) / RFU KRTAP10-11 (11738290_x_at) / Fold change /veh KRTAP10-11 (11738290_x_at) / RFU MYO3A (11730013_a_at) / Fold change /veh MYO3A (11730013_a_at) / RFU EBF3 (11725865_a_at) / Fold change /veh EBF3 (11725865_a_at) / RFU CAMK2N1 (11719241_x_at) / Fold change /veh CAMK2N1 (11719241_x_at) / RFU C5orf56 (11738088_a_at) / Fold change /veh C5orf56 (11738088_a_at) / RFU OLFML3 (11715873_a_at) / Fold change /veh OLFML3 (11715873_a_at) / RFU LOC100653217 /// NTM (11731650_a_at) / Fold change /veh LOC100653217 /// NTM (11731650_a_at) / RFU MAPK11 (11762145_a_at) / Fold change /veh MAPK11 (11762145_a_at) / RFU FIZ1 (11724087_x_at) / Fold change /veh FIZ1 (11724087_x_at) / RFU OASL (11726364_x_at) / Fold change /veh OASL (11726364_x_at) / RFU SOX15 (11748057_x_at) / Fold change /veh SOX15 (11748057_x_at) / RFU CD79A (11719716_a_at) / Fold change /veh CD79A (11719716_a_at) / RFU HIST1H1D (11736915_at) / Fold change /veh HIST1H1D (11736915_at) / RFU CASKIN2 (11723855_a_at) / Fold change /veh CASKIN2 (11723855_a_at) / RFU LOC730098 (11760151_x_at) / Fold change /veh LOC730098 (11760151_x_at) / RFU OR4N2 (11742367_at) / Fold change /veh OR4N2 (11742367_at) / RFU PRRT2 (11749266_a_at) / Fold change /veh PRRT2 (11749266_a_at) / RFU SNX32 (11753110_a_at) / Fold change /veh SNX32 (11753110_a_at) / RFU CDHR5 (11726645_a_at) / Fold change /veh CDHR5 (11726645_a_at) / RFU RCAN1 (11760418_a_at) / Fold change /veh RCAN1 (11760418_a_at) / RFU FAM167A (11723789_a_at) / Fold change /veh FAM167A (11723789_a_at) / RFU FAM26E (11764081_at) / Fold change /veh FAM26E (11764081_at) / RFU ISYNA1 (11749810_s_at) / Fold change /veh ISYNA1 (11749810_s_at) / RFU ACY1 (11761880_at) / Fold change /veh ACY1 (11761880_at) / RFU 11764098_at / Fold change /veh 11764098_at / RFU SAMD14 (11745864_x_at) / Fold change /veh SAMD14 (11745864_x_at) / RFU NPB (11741838_a_at) / Fold change /veh NPB (11741838_a_at) / RFU TMPRSS6 (11731388_a_at) / Fold change /veh TMPRSS6 (11731388_a_at) / RFU KRTAP10-2 (11738614_at) / Fold change /veh KRTAP10-2 (11738614_at) / RFU ARHGAP8 /// PRR5-ARHGAP8 (11727945_x_at) / Fold change /veh ARHGAP8 /// PRR5-ARHGAP8 (11727945_x_at) / RFU KRTAP5-7 /// NADSYN1 (11734609_at) / Fold change /veh KRTAP5-7 /// NADSYN1 (11734609_at) / RFU RASL12 (11751679_a_at) / Fold change /veh RASL12 (11751679_a_at) / RFU CDKN2B (11736163_a_at) / Fold change /veh CDKN2B (11736163_a_at) / RFU PRF1 (11729649_at) / Fold change /veh PRF1 (11729649_at) / RFU, ZNF638 /// ZNF638-IT1 / Fold change vs veh, ZNF638 /// ZNF638-IT1 / RFU, PANK3 / Fold change vs veh, PANK3 / RFU, SH3YL1 / Fold change vs veh, SH3YL1 / RFU, ZEB2 / Fold change vs veh, ZEB2 / RFU, NRIP1 / Fold change vs veh, NRIP1 / RFU, PTTG1IP / Fold change vs veh, PTTG1IP / RFU, CAPN2 / Fold change vs veh, CAPN2 / RFU, MED14 / Fold change vs veh, MED14 / RFU, SNORA58 / Fold change vs veh, SNORA58 / RFU, C1orf63 / Fold change vs veh, C1orf63 / RFU, LRRFIP1 / Fold change vs veh, LRRFIP1 / RFU, NDUFAF7 / Fold change vs veh, NDUFAF7 / RFU, SLC12A2 / Fold change vs veh, SLC12A2 / RFU, IBTK / Fold change vs veh, IBTK / RFU, ESF1 / Fold change vs veh, ESF1 / Fold change vs veh, TMEM50B / RFU, TAOK1 / Fold change vs veh, TAOK1 / RFU, ACBD3 / Fold change vs veh, ACBD3 / RFU, TMA16 / Fold change vs veh, TMA16 / RFU, RWDD3 / Fold change vs veh, RWDD3 / RFU, BCAT1 / Fold change vs veh, BCAT1 / RFU, EDEM3 / Fold change vs veh, EDEM3 / RFU, TMEM33 / Fold change vs veh, TMEM33 / RFU, WDR75 / Fold change vs veh, WDR75 / RFU, AHCTF1 / Fold change vs veh, AHCTF1 / RFU, TFRC / Fold change vs veh, TFRC / RFU, ZDHHC17 / Fold change vs veh, ZDHHC17 / RFU, NOM1 / Fold change vs veh, NOM1 / RFU, ARL8B / Fold change vs veh, ARL8B / RFU, ZBTB11 / Fold change vs veh, ZBTB11 / RFU, TAMM41 / Fold change vs veh, TAMM41 / RFU, KIAA1704 /// LOC100996395 / Fold change vs veh, KIAA1704 /// LOC100996395 / RFU, ING1 / Fold change vs veh, ING1 / RFU, TRMT61B / Fold change vs veh, TRMT61B / RFU, FUBP3 / Fold change vs veh, FUBP3 / RFU, TP53 / Fold change vs veh, TP53 / RFU, TNKS2 / Fold change vs veh, TNKS2 / RFU, ZFP14 / Fold change vs veh, ZFP14 / RFU, ACTR2 / Fold change vs veh, ACTR2 / RFU, PPP3R1 / Fold change vs veh, PPP3R1 / RFU, PIK3R1 / Fold change vs veh, PIK3R1 / RFU, HNRNPA1 / Fold change vs veh, HNRNPA1 / RFU, RNF170 / Fold change vs veh, RNF170 / RFU, ZNF28 / Fold change vs veh, ZNF28 / RFU, RNGTT / Fold change vs veh, RNGTT / RFU, OGT / Fold change vs veh, OGT / RFU, BRD1 / Fold change vs veh, BRD1 / RFU, MARS / Fold change vs veh, MARS / RFU, ZNF655 / Fold change vs veh, ZNF655 / RFU, FAHD1 / Fold change vs veh, FAHD1 / RFU, BDP1 / Fold change vs veh, BDP1 / RFU, LRRCC1 / Fold change vs veh, LRRCC1 / RFU, ARID1A / Fold change vs veh, ARID1A / RFU, ZNF146 / Fold change vs veh, ZNF146 / RFU, ZNF330 / Fold change vs veh, ZNF330 / RFU, GPN3 / Fold change vs veh, GPN3 / RFU, C9orf123 / Fold change vs veh, C9orf123 / RFU, N4BP2L2 / Fold change vs veh, N4BP2L2 / RFU, ARFIP1 / Fold change vs veh, ARFIP1 / RFU, FAM179B / Fold change vs veh, FAM179B / RFU, BCL10 / Fold change vs veh, BCL10 / RFU, UHRF1BP1L / Fold change vs veh, UHRF1BP1L / RFU, BET1 / Fold change vs veh, BET1 / RFU, CNOT2 / Fold change vs veh, CNOT2 / RFU, ZNF268 / Fold change vs veh, ZNF268 / Fold change vs veh, ZNF507 / RFU, DGCR2 / Fold change vs veh, DGCR2 / RFU, WDSUB1 / Fold change vs veh, WDSUB1 / Fold change vs veh, HSP90B1 /// MIR3652 / RFU, ADSS / Fold change vs veh, ADSS / RFU, GK / Fold change vs veh, GK / RFU, ZNF148 / Fold change vs veh, ZNF148 / RFU, TAF9 / Fold change vs veh, TAF9 / RFU, SLC1A5 / Fold change vs veh, SLC1A5 / RFU, SLMO2 / Fold change vs veh, SLMO2 / RFU, ABCC4 / Fold change vs veh, ABCC4 / RFU, LOC101060439 /// RAP1B / Fold change vs veh, LOC101060439 /// RAP1B / RFU, RFX7 / Fold change vs veh, RFX7 / RFU, GTPBP10 / Fold change vs veh, GTPBP10 / RFU, CNEP1R1 / Fold change vs veh, CNEP1R1 / RFU, BIVM-ERCC5 /// ERCC5 / Fold change vs veh, BIVM-ERCC5 /// ERCC5 / RFU, ILF3 / Fold change vs veh, ILF3 / RFU 11762660_at / Fold change /veh 11762660_at / RFU VCAN (11757783_s_at) / Fold change /veh VCAN (11757783_s_at) / RFU DDX43 (11728927_at) / Fold change /veh DDX43 (11728927_at) / RFU KRT8 (11758188_x_at) / Fold change /veh KRT8 (11758188_x_at) / RFU NKD1 (11759106_at) / Fold change /veh NKD1 (11759106_at) / RFU SRD5A1 (11742802_a_at) / Fold change /veh SRD5A1 (11742802_a_at) / RFU TPSAB1 /// TPSB2 (11721975_s_at) / Fold change /veh TPSAB1 /// TPSB2 (11721975_s_at) / RFU GSTM3 (11746129_a_at) / Fold change /veh GSTM3 (11746129_a_at) / RFU IL23R (11737362_x_at) / Fold change /veh IL23R (11737362_x_at) / RFU TMEM51 (11727254_a_at) / Fold change /veh TMEM51 (11727254_a_at) / RFU PIWIL2 (11732686_x_at) / Fold change /veh PIWIL2 (11732686_x_at) / RFU ORM1 (11744905_x_at) / Fold change /veh ORM1 (11744905_x_at) / RFU CCDC152 (11743942_at) / Fold change /veh CCDC152 (11743942_at) / RFU ECM1 (11717891_a_at) / Fold change /veh ECM1 (11717891_a_at) / RFU IL23R (11748794_a_at) / Fold change /veh IL23R (11748794_a_at) / RFU TNFAIP8L3 (11732012_x_at) / Fold change /veh TNFAIP8L3 (11732012_x_at) / RFU MBOAT4 (11741988_at) / Fold change /veh MBOAT4 (11741988_at) / RFU 11764193_at / Fold change /veh 11764193_at / RFU TMEM53 (11763286_at) / Fold change /veh TMEM53 (11763286_at) / RFU MAGEB2 (11727129_at) / Fold change /veh MAGEB2 (11727129_at) / RFU TMEM200A (11744735_a_at) / Fold change /veh TMEM200A (11744735_a_at) / RFU CCDC152 (11751479_a_at) / Fold change /veh CCDC152 (11751479_a_at) / RFU FAM211A (11726209_a_at) / Fold change /veh FAM211A (11726209_a_at) / RFU RGS16 (11746705_a_at) / Fold change /veh RGS16 (11746705_a_at) / RFU VCAN (11755009_s_at) / Fold change /veh VCAN (11755009_s_at) / RFU RHOB (11743442_s_at) / Fold change /veh RHOB (11743442_s_at) / RFU RGS16 (11720943_a_at) / Fold change /veh RGS16 (11720943_a_at) / RFU RGS16 (11720944_at) / Fold change /veh RGS16 (11720944_at) / RFU, VPS4B / Fold change vs veh, VPS4B / RFU, CREB1 / Fold change vs veh, CREB1 / RFU, DNAJC13 / Fold change vs veh, DNAJC13 / RFU, GNAQ / Fold change vs veh, GNAQ / RFU, CDK5R1 / Fold change vs veh, CDK5R1 / RFU, ZRANB3 / Fold change vs veh, ZRANB3 / RFU, CUL4A / Fold change vs veh, CUL4A / RFU, CCNY / Fold change vs veh, CCNY / RFU, UFL1 / Fold change vs veh, UFL1 / RFU, COG3 / Fold change vs veh, COG3 / RFU, DIAPH2 / Fold change vs veh, DIAPH2 / RFU, SKA2 / Fold change vs veh, SKA2 / RFU, AFF3 / Fold change vs veh, AFF3 / RFU, LMF1 / Fold change vs veh, LMF1 / RFU, IPO11 / Fold change vs veh, IPO11 / RFU, DFFB / Fold change vs veh, DFFB / RFU, FOXP1 / Fold change vs veh, FOXP1 / RFU, CARD8 / Fold change vs veh, CARD8 / RFU, STRN3 / Fold change vs veh, STRN3 / RFU, ADK / Fold change vs veh, ADK / RFU, RASSF2 / Fold change vs veh, RASSF2 / RFU, WIPF1 / Fold change vs veh, WIPF1 / RFU, LARP1B / Fold change vs veh, LARP1B / RFU, RASA1 / Fold change vs veh, RASA1 / RFU, RB1 / Fold change vs veh, RB1 / RFU, PPFIA1 / Fold change vs veh, PPFIA1 / RFU, MAT2A / Fold change vs veh, MAT2A / RFU, CCT5 / Fold change vs veh, CCT5 / RFU, WDR92 / Fold change vs veh, WDR92 / RFU, CUX1 / Fold change vs veh, CUX1 / RFU, TTC7A / Fold change vs veh, TTC7A / RFU, TMEM135 / Fold change vs veh, TMEM135 / RFU, DEPTOR / Fold change vs veh, DEPTOR / RFU, CPM / Fold change vs veh, CPM / RFU, DNAJB6 / Fold change vs veh, DNAJB6 / RFU, CACNA2D3 / Fold change vs veh, CACNA2D3 / RFU, DTX4 / Fold change vs veh, DTX4 / RFU, TFCP2 / Fold change vs veh, TFCP2 / RFU, GMCL1 /// GMCL1P1 / Fold change vs veh, GMCL1 /// GMCL1P1 / RFU, AEBP2 / Fold change vs veh, AEBP2 / RFU, SNHG1 /// SNORD22 /// SNORD25 /// SNORD26 /// SNORD27 /// SNORD28 /// SNORD29 /// SNORD31 / Fold change vs veh, SNHG1 /// SNORD22 /// SNORD25 /// SNORD26 /// SNORD27 /// SNORD28 /// SNORD29 /// SNORD31 / Fold change (Aza/veh), C12orf56 (ProbeSet 11735607_a_at) / Fold change (ACY-1035/veh), C12orf56 (ProbeSet 11735607_a_at) / Fold change (Aza/veh), FGFR1OP (ProbeSet 11751329_s_at) / Fold change (ACY-1035/veh), FGFR1OP (ProbeSet 11751329_s_at) / Fold change (Aza/veh), VPS36 (ProbeSet 11739960_a_at) / Fold change (ACY-1035/veh), VPS36 (ProbeSet 11739960_a_at) / RFU SYPL1 (11715823_x_at) / Fold change /veh SYPL1 (11715823_x_at) / RFU IGFBP7 (11715501_s_at) / Fold change /veh IGFBP7 (11715501_s_at) / RFU REEP3 (11722064_at) / Fold change /veh REEP3 (11722064_at) / RFU IGLL1 (11728026_x_at) / Fold change /veh IGLL1 (11728026_x_at): dose or concentration left out as unconfirmed
Conditions: ProbeSet 11725902_s_at; LIST D

Nc1ncn([C@@H]2O[C@H](CO)[C@@H](O)[C@H]2O)c(=O)n1 [azacitidine]
RFU, TMEM135: 62.37 RFU
